According to patent US12485125B2, “Treatment with P2X3 modulators” (GlaxoSmithKline Intellectual Property (No. 3) Limited, priority 2019, dated 2025):

Test system: syngeneic C57BL/6 mice
Experiment: Syngeneic mouse model of endometriosis: mechanical allodynia by von Frey pain stimulation procedure
Type: in vivo
Conditions: 30 mg/kg i.p., day 4 and 5, measured one hour following treatment; p<0.05; FIG. 1A
Method: A P2X3 receptor antagonist compound of Formula (I) described herein was evaluated in the syngeneic mouse model of endometriosis.
C57BL/6 mice (8 weeks old) were anesthetized before making a vertical incision on the abdomen. The uterus was collected and divided into pieces of 5 millimeters which were then surgically sutured onto the peritoneum of syngeneic recipient animals. The recipient mice were also treated with oestradiol and the resulting lesions were allowed to develop for 11 weeks.
Baseline measurements were established on Day 0 by measuring mechanical allodynia in all transplanted mice using a von Frey pain stimulation procedure in accordance with the protocol described below. On Day 1 transplanted mice were injected with saline (i.p.) and mechanical allodynia was again measured using the von Frey filament method (control). […] Mechanical allodynia was evaluated using the von Frey pain stimulation procedure. […] The mice were euthanized on Day 6 and evaluated for the presence of endometriotic lesions.
Animals were placed in small cages with a mesh or otherwise penetrable bottom. The pain threshold was evaluated with von Frey filaments using the simplified up-down method, which determines the mechanical force required to elicit a positive pain response in animals. […]

CNC(=O)c1cc(F)c(-c2nc3cc(C)ccn3c2C[C@H]2CN(C(=O)OC)CCO2)c(F)c1 [Compound 1]
stimulus threshold (von Frey test; pressure stimulus required to elicit behavioral response, change from baseline Day 0): greater stimulus threshold
